The record followed here is PubChem BioAssay (NCI).

What all share (assay): NCI-60 cell line screen, 48 h
For experiment [1], the system named is DLD-1 colon.
Experiment [2] deals with DMS 114 small cell lung.
For experiment [3], the system named is HL-60(TB) leukemia.
Experiment [4] concerns HOP-62 NSCLC.
Experiment [5] relates to IGROV1 ovarian.
Experiment [6] relates to LOX IMVI melanoma.
The test system of experiment [7] is OVCAR-5 ovarian.
The subject of experiment [8] is OVCAR-8 ovarian.
For experiment [9], the system named is RPMI-8226 leukemia.
The test system of experiment [10] is SF-295 CNS.

Several values for one entry are separate records, joined by “and”; a condition that tells them apart may be missing. Equal values may be shown once.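 All cell lines were grown in 96-well plates and treated with compound for 48 hours. Abbreviation: GI50, concentration required for 50% inhibition of growth. TGI marks complete inhibition of growth.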 A value given as a limit tells only on which side of the number the result lay.

Turning to `O=C(N/N=C(/c1nc2ccc(Cl)cc2[nH]c1=O)C(O)c1ccc(Cl)cc1Cl)c1ccncc1` (stereo not drawn), the TGI in experiment [1], in [2], in experiment [3], in experiment [4], in experiment [5] and in [6] was greater than 100 µM each time. Besides, the TGI in [7], in experiment [8], in [9] and in experiment [10] was greater than 100 µM in each case.
Turning to `CC1=NNC(=NCCN(C)C)C/C1=C/c1ccccc1Cl`, the TGI in experiment [1], in experiment [2], in experiment [4], in [5], in experiment [6] and in experiment [7] was greater than 100 µM in each case. Besides, the TGI in experiment [8] and in experiment [10] was greater than 100 µM in each case.
For `COc1ccc2cccc(C(=O)c3ccc(C)c4c3CCC4)c2c1`, the TGI is greater than 100 µM in experiment [1]; greater than 100 µM in experiment [2]; 44.7 µM in experiment [3]; 69.3 µM in experiment [4]; 99.2 µM in experiment [5]; 38.8 µM in [6]. The TGI in experiment [7], in experiment [8] and in experiment [10] was greater than 100 µM in each case.
Consider `C/C1=C\[C@H](C)C[C@H](C)OC(=O)C[C@H](c2ccc(O)cc2)NC(=O)[C@@H](Cc2c(Br)[nH]c3ccccc23)N(C)C(=O)[C@H](C)NC(=O)[C@@H](C)C1`, for which the GI50 is 0.148 µM in experiment [1]; 0.0424 µM in experiment [2]; 0.0176 µM in experiment [3]; 0.0883 µM in experiment [4]; 0.023 µM in experiment [5]; 0.0135 µM in experiment [6]. Also, the GI50 was 0.261 µM in experiment [7], 0.0516 µM in experiment [8], less than 0.0176 µM in experiment [9] and 0.0349 µM in experiment [10]. The TGI is 2.39 µM in [1]; 0.837 µM and 1.56 µM in [2]; 0.384 µM and 0.175 µM in experiment [3]; 0.443 µM and 0.369 µM in experiment [4]; 0.265 µM and 0.0602 µM in experiment [5]; 0.317 µM and 0.0533 µM in [6]. The TGI in [7] is greater than 20.3 µM; in experiment [8] it was 0.568 µM; in experiment [10] it was 0.699 µM and 0.18 µM.
As to `CC(C)(C)N=C1CC(C)(C)c2ccccc2C(=Nc2ccccc2)S1`, the TGI in experiment [1] was greater than 100 µM; in experiment [2], 83.4 µM; in experiment [3], 36 µM; in experiment [4], greater than 100 µM; in experiment [5], greater than 100 µM; in experiment [6], 40.1 µM. Also, the TGI in experiment [7] is greater than 100 µM; in experiment [8] it was greater than 100 µM; in experiment [9], 41.5 µM; in experiment [10] it was greater than 100 µM.
Turning to `Cc1nc(C)c(C(=O)Nc2cccc3c2C(=O)NC3=O)cc1C(=O)Nc1cccc2c1C(=O)NC2=O`, the TGI in experiment [1], in [2], in experiment [3], in [4], in [5] and in experiment [6] was greater than 100 µM throughout. Further, the TGI in [7], in experiment [8], in experiment [9] and in experiment [10] was greater than 100 µM each time.
For `CCCCc1c2c(nc3c1CCc1cc4c(nc1-3)-c1nc3c(c(CCCC)c1CC4)CCC/C3=C\c1ccccc1)/C(=C/c1ccccc1)CCC2`, the TGI in [1], in experiment [2], in [3], in experiment [4], in experiment [5] and in experiment [6] was greater than 100 µM each time. Besides, the TGI in experiment [7], in [8], in experiment [9] and in experiment [10] was greater than 100 µM each time.
In the case of `CCC1C(C)c2c([nH]c3ccccc23)C2C(=O)N(c3ccccc3)C(=O)C21` (stereo not drawn), the TGI in experiment [1] is 34.9 µM; in experiment [2] it was 29.7 µM; in experiment [3], 33.9 µM; in experiment [5] it was 22.3 µM; in experiment [6] it was 31.8 µM; in experiment [8], 28.7 µM. Besides, the TGI is 40.9 µM in [9] and 32.3 µM in experiment [10].
Turning to `c1ccc2c(CNCCCCCCNCc3cccc4ccccc34)cccc2c1`, the TGI in experiment [1] was 13.8 µM; in experiment [2], 20.2 µM; in experiment [3], 3.45 µM; in [4] it was 30.6 µM; in [5], 30.7 µM; in experiment [6], 3.5 µM. The TGI in experiment [7] was determined as 29.3 µM; in experiment [8], 29 µM; in experiment [9], 6.79 µM; in [10], 24.8 µM.
Take `CC(C)[C@@H]1C=C(c2ccccc2)c2ccccc2C1C(C#N)(C#N)C(C)C` (stereo partly drawn): the TGI in experiment [1], in [2], in experiment [3], in experiment [4], in experiment [5] and in [6] was greater than 100 µM each time. Besides, the TGI in experiment [7], in experiment [8], in experiment [9] and in [10] was greater than 100 µM in each case.
With `N#Cc1cccc(NC(=O)c2ccc(C(=O)O)c(C(=O)c3ccc(C(=O)O)c(C(=O)Nc4cccc(C#N)c4)c3)c2)c1`, the TGI in [1], in experiment [2], in experiment [3], in [4], in [5] and in [6] was greater than 100 µM each time. The TGI in experiment [7], in experiment [8], in experiment [9] and in experiment [10] was greater than 100 µM each time.
Consider `C/C(=N\NC(N)=O)C(CN1CCCCC1)C(c1ccccc1)c1c(O)c2ccccc2oc1=O` (stereo not drawn), for which the TGI in [1] was greater than 100 µM; in [2] it was greater than 100 µM; in experiment [3] it was greater than 72.9 µM; in experiment [4], greater than 100 µM; in experiment [5], greater than 100 µM; in experiment [6], greater than 100 µM. Also, the TGI in experiment [7], in [8], in [9] and in [10] was greater than 100 µM each time.
Turning to `N/C(=N\NS(=O)(=O)c1ccccc1)Oc1ccc(Cl)cc1`, the TGI in experiment [1] was greater than 100 µM; in experiment [2] it was greater than 100 µM; in experiment [3], 60.6 µM; in experiment [4] it was greater than 100 µM; in experiment [5] it was greater than 100 µM; in experiment [6] it was greater than 100 µM. Also, the TGI in [7], in experiment [8], in [9] and in experiment [10] was greater than 100 µM in each case.
In the case of `COc1cc([C@@H]2c3cc4c(cc3[C@@H](NC(=O)c3ccc(N)cc3)C3COC(=O)[C@@H]32)OCO4)cc(OC)c1O` (stereo partly drawn), the TGI in experiment [1] worked out at 35.4 µM; in [2], 9.71 µM; in [3], 4.35 µM; in experiment [4], 3.95 µM; in [5] it was 20.2 µM; in experiment [6], 18.7 µM. Besides, the TGI in experiment [7] stood at 34.5 µM; in experiment [8] it was 16.3 µM; in experiment [9], 20.2 µM; in experiment [10], 95.8 µM.
In the case of `COC(=O)C1=C(OC)c2cc3c(cc2C(c2cc(OC)c(OC)c(OC)c2)C1C(=O)OC)OCO3` (stereo not drawn), the TGI in experiment [1], in [2], in [3], in [4], in experiment [5] and in experiment [6] was greater than 100 µM in each case. For the same molecule, the TGI in [7], in experiment [8], in experiment [9] and in [10] was greater than 100 µM each time.
For `Cn1cnc([N+](=O)[O-])c1Sc1ccccn1`, the TGI in [1], in [2], in [4], in experiment [5], in experiment [6] and in [7] was greater than 100 µM each time. The TGI in experiment [8], in experiment [9] and in experiment [10] was greater than 100 µM throughout.
On to `C=CN1C(=O)OC(c2ccccc2)C1c1ccccc1` (stereo not drawn), for which the GI50 in experiment [1] was greater than 100 µM; in experiment [2], > 31.6 µM and 73.1 µM; in [4], 52.8 µM; in experiment [5], greater than 100 µM; in experiment [8], greater than 100 µM; in experiment [9], > 31.6 µM and 88.6 µM. For the same molecule, the TGI in [1], in experiment [2], in experiment [3], in experiment [4], in [5] and in experiment [6] was greater than 100 µM in each case. Also, the TGI in experiment [7], in [8], in [9] and in [10] was greater than 100 µM throughout.
Turning to `Cc1cnc[nH]c1=O`, the TGI in [1], in experiment [2], in experiment [3], in experiment [4], in experiment [5] and in [6] was greater than 100 µM each time. The TGI in experiment [7], in experiment [8], in [9] and in experiment [10] was greater than 100 µM throughout.
`Cc1c[nH]c2c1C13CC1CN(C(=O)c1cc4cc(NC(=O)c5cc6ccccc6o5)ccc4[nH]1)C3=CC2=O` (stereo not drawn): the GI50 in experiment [1], in experiment [2], in [3], in [5], in experiment [6] and in experiment [7] was greater than 1.17 ng/mL each time. The GI50 in experiment [8], in [9] and in experiment [10] was greater than 1.17 ng/mL in each case. Further, the TGI is 34.6 nM and 1.69 µg/mL in experiment [1]; less than 0.001 µM in [2]; 13.5 ng/mL in experiment [5]; less than 0.001 µM in [6]; less than 0.001 µM in experiment [7]; less than 0.001 µM in experiment [8]. The molecule further came in with a TGI in experiment [10] of less than 0.001 µM.
As for `Cc1cc(NS(=O)(=O)c2ccc(Nc3c4ccccc4nc4c(C(=O)Nc5ccc(S(=O)(=O)N=C(N)N)cc5)cccc34)cc2)no1`, the TGI in [1], in experiment [2], in experiment [4], in [5], in experiment [6] and in experiment [7] was greater than 100 µM throughout. Also, the TGI in experiment [8], in experiment [9] and in [10] was greater than 100 µM each time.
For `C[Si](C)(C)/C=C/CCC(C=O)(CCCl)c1ccccc1` (stereo not drawn), the TGI in [1] was greater than 100 µM; in experiment [2], 54.9 µM; in experiment [3] it was greater than 100 µM; in experiment [5], greater than 100 µM; in experiment [6], 36.2 µM; in [7], 97.7 µM. Also, the TGI in experiment [8] is 87 µM; in experiment [10], 57.2 µM.
In the case of `O=C(CC(=O)N1N=C(c2ccccc2)C(N=Nc2ccc(C(=O)O)cc2)C1=O)Nc1ccc(F)cc1` (stereo not drawn), the TGI in experiment [1] was greater than 100 µM; in experiment [2] it was greater than 100 µM; in [3] it was 42.9 µM; in [5], 80.5 µM; in experiment [6] it was greater than 100 µM; in experiment [7], greater than 100 µM. Besides, the TGI was greater than 100 µM in experiment [8], 99 µM in experiment [9] and greater than 100 µM in experiment [10].
Consider `COC(=O)/C=C/C(=O)C1C(C(=O)OC)C2(C(=O)OC)CCC1(C(=O)OC)N2` (stereo not drawn), for which the TGI in [1], in experiment [2], in experiment [3], in [4], in experiment [5] and in [7] was greater than 100 µM each time. Besides, the TGI in experiment [8], in experiment [9] and in [10] was greater than 100 µM in each case.
As to `COC(=O)C[CH](C(=O)OC)[Ge]([CH3])([CH3])[S]c1ccccc1` (stereo not drawn), the GI50 in [1] was 22 µM; in experiment [3], 3 µM; in experiment [4], 22.4 µM; in experiment [5] it was 0.463 µM; in [6], 4.92 µM; in experiment [7], 18.7 µM. Moreover, the results for the GI50 in [8], in [9] and in experiment [10] were 19.3 µM, 17.1 µM and 12.6 µM, respectively. Also, the TGI was determined as 42.4 µM in experiment [1]; 17.5 µM in experiment [3]; 50.5 µM in [4]; 2.2 µM in experiment [5]; 17.1 µM in experiment [6]; 42.6 µM in experiment [7]. Besides, the TGI in experiment [8] came out at 76.9 µM; in experiment [9], 56.7 µM; in experiment [10], 40 µM.
